Residues, ends and D or L forms follow the SMILES beside them. *: point of attachment. Biotin = O=C1N[C@H]2[C@H](CS[C@H]2CCCCC(=O)*)N1; CH2Cl = ClC*
Legend:
matriptase-2 (MT-2) [1] = target: T1, matriptase-2 (MT-2) (Homo sapiens, UniProt Q8IU80); experiment: MT-2 activity in supernatant of transfected HEK cells (fluorogenic substrate Boc-Gln-Ala-Arg-AMC); format: biochemical; conditions: probe 25–100 nM, Boc-Gln-Ala-Arg-AMC 40 µM, NaCl 150 mM, TRIS 50 mM, pH 8.0, 10 µg supernatant, 37 °C, 50 min, ex 340 nm, em 460 nm, non-linear regression of progress curves
T1 construct: This fragment consists of the catalytic and the three LDLRA domains of MT-2; made in house; host or cells: stably transfected HEK cells; concentrated culture supernatant, not purified
T1 sequence (Q8IU80 577-811 limits assumed): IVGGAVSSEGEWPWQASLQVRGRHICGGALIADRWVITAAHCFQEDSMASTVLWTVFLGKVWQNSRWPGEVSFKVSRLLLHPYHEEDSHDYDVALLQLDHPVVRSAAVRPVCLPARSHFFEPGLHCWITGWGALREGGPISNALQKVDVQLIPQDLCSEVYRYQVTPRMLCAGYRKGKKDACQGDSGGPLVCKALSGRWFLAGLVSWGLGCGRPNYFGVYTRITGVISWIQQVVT
T1 sequence (Q8IU80 438-576 partner limits assumed): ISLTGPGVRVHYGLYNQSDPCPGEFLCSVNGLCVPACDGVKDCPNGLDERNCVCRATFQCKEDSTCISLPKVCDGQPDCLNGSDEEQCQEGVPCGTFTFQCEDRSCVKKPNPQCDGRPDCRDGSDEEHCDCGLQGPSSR
Description: We used stably transfected human embryonic kidney (HEK) cells as the source for MT-2 [14]. […] Initially, the inhibitory potency of biotin-RQRR-CMK against MT-2 was assessed. For this purpose, we determined MT-2 activity in the supernatant of transfected HEK cells using a tripeptidic fluorogenic substrate. Probe concentrations of 25 nM to 100 nM were applied. Values kobs were obtained from non-linear regression of the progress curves of the supernatant experiment using the equation [P] = v0 (1 − e^−kobs t)/kobs + d(1) where [P] is the product concentration, v0 is the initial rate and d is the offset. […]
(§1) Stably transfected human embryonic kidney (HEK) cells expressing MT-2 or an empty vector construct were cultivated in Dulbecco’s Modified Eagle’s Medium (DMEM) containing fetal bovine serum (FBS) as well as penicillin and streptadivin in a concentration of […] at 37 °C. […] The protein concentration of the obtained protein mixture was determined by absorption measurements using Roti-Nanoquant Bradford solution.
Kinetic measurements were performed on a Fluostar Optima plate reader (BMG Lab Tech, Offenburg, Germany) in 96 well plates. […]

matriptase-2 (MT-2) [2] = target: T2, matriptase-2 (MT-2) (Homo sapiens, UniProt Q8IU80); experiment: MT-2 activity on the surface of transfected HEK cells; format: cell-based
T2 construct: expressed in transfected cells; host or cells: stably transfected HEK cells
T2 sequence (Q8IU80 1-802 isoform Q8IU80-1): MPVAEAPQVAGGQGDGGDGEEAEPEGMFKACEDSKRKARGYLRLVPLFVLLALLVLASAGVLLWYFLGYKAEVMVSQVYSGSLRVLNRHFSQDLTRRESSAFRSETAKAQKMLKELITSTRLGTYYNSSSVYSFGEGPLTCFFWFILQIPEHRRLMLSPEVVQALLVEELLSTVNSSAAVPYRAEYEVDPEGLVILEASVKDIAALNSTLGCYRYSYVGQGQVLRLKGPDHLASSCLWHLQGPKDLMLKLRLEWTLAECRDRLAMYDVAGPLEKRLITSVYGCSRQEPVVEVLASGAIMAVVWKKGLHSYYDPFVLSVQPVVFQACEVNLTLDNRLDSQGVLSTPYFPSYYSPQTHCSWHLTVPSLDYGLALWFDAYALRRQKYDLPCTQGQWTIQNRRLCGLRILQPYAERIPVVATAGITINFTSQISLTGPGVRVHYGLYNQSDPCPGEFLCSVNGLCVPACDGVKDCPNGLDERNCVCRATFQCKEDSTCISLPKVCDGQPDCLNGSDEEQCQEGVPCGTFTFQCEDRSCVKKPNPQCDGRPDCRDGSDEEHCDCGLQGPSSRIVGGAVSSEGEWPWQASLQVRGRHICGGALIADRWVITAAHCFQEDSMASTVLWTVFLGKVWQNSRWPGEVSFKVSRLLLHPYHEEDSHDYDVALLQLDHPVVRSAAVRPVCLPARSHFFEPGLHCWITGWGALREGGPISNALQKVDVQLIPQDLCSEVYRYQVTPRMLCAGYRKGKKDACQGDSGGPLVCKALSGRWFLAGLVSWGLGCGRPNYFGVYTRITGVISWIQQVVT
Description: To further investigate the inhibitory potency of the probe in an in vitro approach, MT-2 activity was measured on the surface of stably transfected HEK cells expressing MT-2. Different probe concentrations were applied (Figure 3).
To measure MT-2 activity at the cell surface, HEK cells were seeded in 96 well cell culture plates and cultivated at 37 °C in DMEM medium until a confluence of approximately 70% was reached. After two washing steps with PBS and two further days of incubation in Opti-MEM medium at 37 °C, the culture medium was removed and the cells were washed two times with PBS. MT-2 assay buffer, biotin-RQRR-CMK and DMSO were then directly added to the cells before the reaction was started by adding substrate solution in a final concentration of 40 µM to each well. The conversion of the substrate by MT-2 was followed over a time of 50 min at 37 °C.

matriptase-2 (MT-2) [3] = experiment: Western blot detection of biotin-RQRR-CMK-labeled MT-2 in HEK-cell supernatant (Strep-Tactin/AP); conditions: 30 µg HEK-MT-2 supernatant, 50 µM aprotinin for 2 h before probe (5 µM, 30 min)
Description: Similar to antibody staining addressing the myc tag, the biotin tag which was chemically introduced by biotin-RQRR-CMK was employed for the detection of MT-2 after western blotting. For this purpose, 30 µg of HEK-mock or HEK-MT-2 supernatants were incubated with or without biotin-RQRR-CMK prior to SDS-PAGE. After transfer to a nitrocellulose membrane, the blot was incubated with a conjugate of Strep-Tactin with alkaline phosphatase (AP). […] This band was only observed in the supernatant of HEK cells expressing active MT-2 that was treated with the probe.
(§2) To confirm that biotin-RQRR-CMK binds to the active site of MT-2, we added aprotinin to the supernatants of HEK-MT-2 cells. Treatment with aprotinin or DMSO was carried out 2 h prior to probe treatment. […] MT-2 was present in the supernatant of transfected HEK cells incubated with the probe and/or aprotinin (Figure 6: panel a).
as §1, with “solution. […]” for “solution.”

MT-2 = conditions: active-site directed inhibitor of serine proteases; ref [1],[38]; cited from earlier work
Description: as §2

Row | Molecule | kinac/Ki (second-order rate constant of inactivation) (matriptase-2 (MT-2) [1]) | Ki (matriptase-2 (MT-2) [2]; surface of stably transfected HEK cells, probe 100–600 nM, substrate 40 µM, MT-2 assay buffer, 37 °C, 50 min, linear regression of progress curves, equation (3)) | Ki (in words) (matriptase-2 (MT-2) [2]; surface of transfected HEK cells) | protection of MT-2 from labeling by biotin-RQRR-CMK (matriptase-2 (MT-2) [3]) | inhibition of MT-2 (MT-2)
1 | N=C(N)NCCC[C@H](NC(=O)[C@H](CCCNC(=N)N)NC(=O)[C@H](CCC(N)=O)NC(=O)[C@H](CCCNC(=N)N)NC(=O)CCCC[C@@H]1SC[C@@H]2NC(=O)N[C@@H]21)C(=O)CCl [biotin-RQRR-CMK] (Biotin-RQRR-CH2Cl) | 10,800 M^−1 s^−1 | 89 nM | two-digit nanomolar Ki value |  | 
2 | aprotinin |  |  |  | labeled MT-2 fragment which was missing in HEK-MT-2 supernatants after aprotinin treatment | has been shown to inhibit MT-2

Reference: article PMC6027297, “A Short Peptide Inhibitor as an Activity-Based Probe for Matriptase-2” (Pharmaceuticals, 2018)
